Structures can show the parent of a compound that is named as a salt.
Target: GST-Syk Full Protein (human) (Homo sapiens, UniProt P43405)
Assay: Syk kinase inhibition test (HTRF method)
Type: biochemical
Settings: Tables 1-x, compounds A; read-out: sykHTRF ave IC50
Procedure: Syk Kinase Inhibition Test (HTRF Method)
After the compounds were serially diluted with dimethylsulfoxide (DMSO), 10 μL of those 10-fold diluted with kinase buffer (20 mM HEPES pH 7.0, 10 mM MgCl2, 50 mM NaCl, 1 mM 2-ME, 0.05% BSA) was added to opti-plate HTRF-96 (Packard) (final DMSO concentration: 2%). 20 μL of a substrate solution (kinase buffer as mentioned above containing Syk Specific-Peptide Substrate Biot-EDPDYEWPSA-NH2 (Peptide Laboratory) 625 nM, 250 μM ATP (SIGMA) was added (final substrate concentration 250 nM, 100 μM ATP), and further 20 μL of an enzyme solution (kinase buffer as mentioned above containing GST-Syk Full Protein (human) 16 nM) (final concentration 6.4 nM) was added and the mixture was immediately stirred with a plate shaker to start enzyme reaction. After reacted at room temperature (20 to 25° C.) for 30 minutes, the enzyme reaction was terminated by adding 100 μL/well of a buffer for terminating and detecting the reaction (30 mM HEPES pH 7.0, 150 mM KF, 0.15% BSA, 0.075% Tween-20, 75 mM EDTA) containing HTRF reagent (5 μg/ml XL665-Streptavidin (CIS bio), 170 ng/ml Eu(K)-anti-PhosphoTyrosin, PT-66 (CIS bio)) (final concentration 20 mM HEPES pH 7.0, 100 mM KF, 0.1% BSA, 0.05% Tween-20, 50 mM EDTA). After allowed to stand still at room temperature for 1 hour, inhibitory effect of a compound against Syk kinase enzymatic activity was evaluated by measuring 665/620 fluorescence ratio to excitation light at 337 nm by ARVO (Wallac).

Row | IC50 [nM] | SMILES
1 | < 100 | Cc1ccnc(Nc2cccc(-c3cnc(N4CCC[C@@H](c5nnn[nH]5)C4)s3)n2)c1 [Compound A-590, N-(4-methylpyridin-2-yl)-N-(6-{2-[(R)-3-(1H-tetrazol-5-yl)piperidin-1-yl]thiazol-5-yl}pyridin-2-yl)amine]
2 | 100 to 1000 | Cc1ccnc(Nc2cccc(-c3cnc(CN4CCc5c(cccc5C(=O)O)C4)s3)n2)c1 [Compound A-608]
3 | < 100 | Cc1ccnc(Nc2cccc(-c3cnc(COCC(=O)O)s3)n2)c1 [Compound A-615, {5-[6-(4-methylpyridin-2-ylamino)pyridin-2-yl]thiazol-2-ylmethoxy}acetic acid hydrochloride]
4 | 100 to 1000 | Cc1ccnc(Nc2cccc(-c3cnc(N(C)c4ccc(/C=C/C(=O)O)cc4)s3)n2)c1 [Compound A-618]
5 | 100 to 1000 | Cc1ccnc(Nc2cccc(-c3cnc(CSc4ccc(C(=O)O)cc4)s3)n2)c1 [Compound A-619]
6 | 100 to 1000 | Cc1ccnc(Nc2cccc(-c3cnc(N4CCCc5ccc(C(=O)O)cc54)s3)n2)c1 [Compound A-621]
7 | < 100 | Cc1ccnc(Nc2cccc(-c3cnc(N(Cc4ccccc4)C[C@H]4CC[C@H](C(=O)O)CC4)s3)n2)c1 [Compound A-622, trans-4-[(N-benzyl-N-{5-[6-(4-methylpyridin-2-ylamino)pyridin-2-yl]thiazol-2-yl}amino)methyl]cyclohexanecarboxylic acid]
8 | 100 to 1000 | Cc1cc(C)nc(Nc2cccc(-c3cnc(N4CCC(CC(=O)O)CC4)s3)n2)c1 [Compound A-623]
9 | < 100 | Cc1ccnc(Nc2cccc(-c3cnc(N(Cc4ccccc4)[C@H]4CC[C@H](CC(=O)O)CC4)s3)n2)c1 [Compound A-624, [trans-4-(N-benzyl-N-{5-[6-(4-methylpyridin-2-ylamino)pyridin-2-yl]thiazol-2-yl}amino)cyclohexyl]acetic acid]
10 | 100 to 1000 | Cc1ccnc(Nc2cccc(-c3cnc(N(Cc4ccccc4)[C@H]4CC[C@@H](CC(=O)O)CC4)s3)n2)c1 [Compound A-625]
11 | < 100 | Cc1ccnc(Nc2cccc(-c3cnc(N(C[C@H]4CC[C@H](C(=O)O)CC4)C(C)C)s3)n2)c1 [Compound A-626, trans-4-[(N-isopropyl-N-{5-[6-(4-methylpyridin-2-ylamino)pyridin-2-yl]thiazol-2-yl}amino)methyl]cyclohexanecarboxylic acid]
12 | < 100 | Cc1ccnc(Nc2cccc(-c3cnc(N4CCCc5c(C(=O)O)cccc54)s3)n2)c1 [Compound A-627, 1-{5-[6-(4-methylpyridin-2-ylamino)pyridin-2-yl]thiazol-2-yl}-1,2,3,4-tetrahydroquinoline-5-carboxylic acid]
13 | 100 to 1000 | Cc1cccc(Nc2cccc(-c3cnc(N4CCC(CC(=O)O)CC4)s3)n2)n1 [Compound A-628]
14 | 100 to 1000 | Cc1ccc(Nc2cccc(-c3cnc(N4CCC(CC(=O)O)CC4)s3)n2)nc1 [Compound A-629]
15 | 100 to 1000 | Cc1cccnc1Nc1cccc(-c2cnc(N3CCC(CC(=O)O)CC3)s2)n1 [Compound A-630]
16 | < 100 | Cc1ccnc(Nc2cccc(-c3cnc(N4CCC(=C(F)C(=O)O)CC4)s3)n2)c1 [Compound A-631, fluoro-(1-{5-[6-(4-methylpyridin-2-ylamino)pyridin-2-yl]thiazol-2-yl}piperidin-4-ylidene)acetic acid]
17 | < 100 | Cc1ccnc(Nc2cccc(-c3cnc(N(C)CCCCC(=O)O)s3)n2)c1 [Compound A-632, 5-(N-methyl-N-{5-[6-(4-methylpyridin-2-ylamino)pyridin-2-yl]thiazol-2-yl}amino)pentanoic acid]
18 | < 100 | Cc1ccnc(Nc2cccc(-c3cnc(N4CCC(CC(=O)NS(C)(=O)=O)CC4)s3)n2)c1 [Compound A-633, N-[2-(1-{5-[6-(4-methylpyridin-2-ylamino)pyridin-2-yl]thiazol-2-yl}piperidin-4-yl)acetyl]methanesulfonamide]

Row | IC50 [nM] | SMILES
19 | < 100 | Cc1ccnc(Nc2cccc(-c3cnc(N(C)CCCC(=O)O)s3)n2)c1 [Compound A-634, 4-(N-methyl-N-{5-[6-(4-methylpyridin-2-ylamino)pyridin-2-yl]thiazol-2-yl}amino)butyric acid dihydrochloride]
20 | < 100 | O=C(O)CC1CCN(c2ncc(-c3cccc(Nc4cc(C(F)(F)F)ccn4)n3)s2)CC1 [Compound A-635, (1-{5-[6-(4-trifluoromethylpyridin-2-ylamino)pyridin-2-yl]thiazol-2-yl}piperidin-4-yl)acetic acid dihydrochloride]
21 | < 100 | O=C(O)CC1CCN(c2ncc(-c3cccc(Nc4ccc(Cl)cn4)n3)s2)CC1 [Compound A-636, (1-{5-[6-(5-chloropyridin-2-ylamino)pyridin-2-yl]thiazol-2-yl}piperidin-4-yl)acetic acid dihydrochloride]
22 | < 100 | COc1ccnc(Nc2cccc(-c3cnc(N4CCC(CC(=O)O)CC4)s3)n2)c1 [Compound A-637, (1-{5-[6-(4-methoxypyridin-2-ylamino)pyridin-2-yl]thiazol-2-yl}piperidin-4-yl)acetic acid dihydrochloride]
23 | < 100 | CN(c1ncc(-c2cccc(Nc3cc(C(F)(F)F)ccn3)n2)s1)[C@H]1CC[C@H](C(=O)O)CC1 [Compound A-638, trans-4-(N-methyl-N-{5-[6-(4-trifluoromethylpyridin-2-ylamino)pyridin-2-yl]thiazol-2-yl}amino)cyclohexanecarboxylic acid]
24 | < 100 | Cc1ccnc(Nc2cccc(-c3cnc(N(C)c4ccc(CCC(=O)O)cc4)s3)n2)c1 [Compound A-639, 3-[4-(N-methyl-N-{5-[6-(4-methylpyridin-2-ylamino)pyridin-2-yl]thiazol-2-yl}amino)phenyl]propionic acid]
25 | < 100 | Cc1ccnc(Nc2cccc(-c3cnc(N(C)CCC/C=C/C(=O)O)s3)n2)c1 [Compound A-640, (E)-6-(N-methyl-N-{5-[6-(4-methylpyridin-2-ylamino)pyridin-2-yl]thiazol-2-yl}amino)hex-2-enoic acid dihydrochloride]
26 | < 100 | Cc1ccnc(Nc2cccc(-c3cnc(N4CCc5cc(CC(=O)O)ccc5C4)s3)n2)c1 [Compound A-641, (2-{5-[6-(4-methylpyridin-2-ylamino)pyridin-2-yl]thiazol-2-yl}-1,2,3,4-tetrahydroisoquinolin-6-yl)acetic acid]
27 | < 100 | Cc1ccnc(Nc2cccc(-c3cnc(N4CCc5c(CCC(=O)O)cccc5C4)s3)n2)c1 [Compound A-642, 3-(2-{5-[6-(4-methylpyridin-2-ylamino)pyridin-2-yl]thiazol-2-yl}-1,2,3,4-tetrahydroisoquinolin-5-yl)propionic acid]
28 | < 100 | Cc1ccnc(Nc2cccc(-c3cnc(N(CCCCC(=O)O)C(C)C)s3)n2)c1 [Compound A-643, 5-(N-isopropyl-N-{5-[6-(4-methylpyridin-2-ylamino)pyridin-2-yl]thiazol-2-yl}amino)pentanoic acid]
29 | < 100 | Cc1ccnc(Nc2cccc(-c3cnc(NCCCCC(=O)O)s3)n2)c1 [Compound A-644, 5-{5-[6-(4-methylpyridin-2-ylamino)pyridin-2-yl]thiazol-2-ylamino}pentanoic acid]
30 | < 100 | Cc1ccnc(Nc2cccc(-c3cnc(N(C)CCCCCC(=O)O)s3)n2)c1 [Compound A-645, 6-(N-methyl-N-{5-[6-(4-methylpyridin-2-ylamino)pyridin-2-yl]thiazol-2-yl}amino)hexanoic acid dihydrochloride]
31 | 100 to 1000 | Cc1ccnc(Nc2cccc(-c3cnc(N4CCC[C@H]4C(=O)NS(C)(=O)=O)s3)n2)c1 [Compound A-646]
32 | < 100 | Cc1ccnc(Nc2cccc(-c3cnc(N(C)CCC/C=C(\F)C(=O)O)s3)n2)c1 [Compound A-647, (Z)-2-fluoro-6-(N-methyl-N-{5-[6-(4-methylpyridin-2-ylamino)pyridin-2-yl]thiazol-2-yl}amino)hex-2-enoic acid dihydrochloride]
33 | < 100 | O=C(O)CC1CC2CCC(C1)N2c1ncc(-c2cccc(Nc3cc(C(F)(F)F)ccn3)n2)s1 (stereo not drawn) [Compound A-648, (8-{5-[6-(4-trifluoromethylpyridin-2-ylamino)pyridin-2-yl]thiazol-2-yl}-8-azabicyclo[3.2.1]oct-3-yl)acetic acid]
34 | < 100 | Cc1ccnc(Nc2cccc(-c3cnc(N4C5CCC4CC(CC(=O)O)C5)s3)n2)c1 (stereo not drawn) [Compound A-649, (8-{5-[6-(4-methylpyridin-2-ylamino)pyridin-2-yl]thiazol-2-yl}-8-azabicyclo[3.2.1]oct-3-yl)acetic acid]
35 | < 100 | N#Cc1ccnc(Nc2cccc(-c3cnc(N4CCC(CC(=O)O)CC4)s3)n2)c1 [Compound A-650, (1-{5-[6-(4-cyanopyridin-2-ylamino)pyridin-2-yl]thiazol-2-yl}piperidin-4-yl)acetic acid dihydrochloride]
36 | < 100 | CN(Cc1ccc(CC(=O)O)cc1)c1ncc(-c2cccc(Nc3cc(C(F)(F)F)ccn3)n2)s1 [Compound A-651, {4-[(N-methyl-N-{5-[6-(4-trifluoromethylpyridin-2-ylamino)pyridin-2-yl]thiazol-2-yl}amino)methyl]phenyl}acetic acid]
